Where no end group is shown, it is not given here.
target: T1, recombinant human HLA-E*0103 (Homo sapiens, UniProt P13747); assay: biochemical; type: binding; details: not given
T1 construct: made in house; host or cells: E. coli

| Compound | IC50 |
| --- | --- |
| RMPPLGHEL [Peptide 62] | 4 µM |
| FMTRLGPLL [Peptide 60] | 37 µM |
| VSNLRTGKL-OH [Peptide 27] | > 50 µM |
| LPAERAHEL-OH [Peptide 31] | > 50 µM |
| CSCC[C@H](NC(=O)[C@@H](N)CCC(N)=O)C(=O)N[C@@H](CCCCN)C(=O)N[C@@H](Cc1ccccc1)C(=O)N[C@@H](Cc1ccc(O)cc1)C(=O)N[C@@H](C)C(=O)N[C@H](C(=O)N[C@@H](C)C(=O)N[C@@H](CC(C)C)C(=O)O)C(C)C [Peptide 5, QMKFYAVAL] | 1.5 µM |
| IEPRGAQAL-OH [Peptide 57, IEPRGAQAL] | > 50 µM |
| VLLPGLPYL [Peptide 50] | 8 µM |
| EMLTSRGLL-OH [Peptide 37] | > 50 µM |
| REPRRGPRL-OH [Peptide 51] | > 50 µM |
| WLPPLLTNL [Peptide 69] | 39 µM |
| LMHYRGELL [Peptide 29] | 20 µM |
| RPANLAFFL [Peptide 59] | 1.3 µM |
| WMCDRAVDL-OH [Peptide 9] | > 50 µM |

same assay, conditions: concentration of peptide reducing fluorescence of standard peptide VMAPC(Fl)TLLL (100 fmol) by 50%; […]; gel filtration HPLC, emission 528 nm; at least two separate experiments; read-out: Binding

| Compound | IC50 |
| --- | --- |
| SMADRAENL-OH [Peptide 1] | > 50 µM |
| VLRPGGHFL [Peptide 68] | 1.8 µM |
| DLPSRLGKI-OH [Peptide 58] | > 50 µM |
| EMGRAPLDL-OH [Peptide 43] | > 50 µM |
| CC(C)C[C@H](NC(=O)[C@H](CC(C)C)NC(=O)[C@@H]1CCCN1C(=O)[C@H](C)NC(=O)[C@H](CCCCN)NC(=O)[C@H](C)NC(=O)[C@@H]1CCCN1C(=O)[C@H](CC(C)C)NC(=O)[C@@H](N)CCCNC(=N)N)C(=O)O [Peptide 44] | 0.03 µM |
| RSCPRLTIL-OH [Peptide 64] | > 50 µM |
| RMAATAQVL [Peptide 14] | 2 µM |
| VMTTVLATL [Peptide 34] | 1.8 µM |
| GLDSRAYRL-OH [Peptide 18] | > 50 µM |
| QLAPGLQLI-OH [Peptide 46] | > 50 µM |
| LMGAEADAL-OH [Peptide 17, LMGAEADAL] | > 50 µM |
| RLGRLLNRI-OH [Peptide 56] | > 50 µM |
| DMLGRAGGL-OH [Peptide 12] | > 50 µM |
| VLPACLGIL [Peptide 67] | 12 µM |
| RLANLLPLI [Peptide 48] | 32 µM |
| EMVLRADQL-OH [Peptide 11] | > 50 µM |
| GMGMVGTAL-OH [Peptide 35, GMGMVGTAL] | > 50 µM |
| VMAPDAVRI [Peptide 63] | 31 µM |
| PMKRTALAL [Peptide 6, PMKRTALAL] | 18 µM |

| Compound | IC50 |
| --- | --- |
| VEAFRTRPL-OH [Peptide 16] | > 50 µM |
| KMNAKAATL [Peptide 4] | 15 µM |
| PMAPLAPLL [Peptide 20] | 3 µM |
| CC[C@H](C)[C@H](N)C(=O)N[C@@H](CC(C)C)C(=O)N1CCC[C@H]1C(=O)N[C@@H](CO)C(=O)N[C@@H](CC(=O)O)C(=O)N[C@@H](C)C(=O)N1CCC[C@H]1C(=O)N[C@H](C(=O)N[C@@H](CC(C)C)C(=O)O)C(C)C [Peptide 49] | 0.2 µM |
| TSADRAVVL [Peptide 28] | 39 µM |
| VMATRRNVL [Peptide 55] | 16 µM |
| CC[C@H](C)[C@H](N)C(=O)N[C@@H](CCSC)C(=O)N[C@@H](C)C(=O)N[C@@H](CC(N)=O)C(=O)N[C@@H](CCCNC(=N)N)C(=O)N[C@@H](C)C(=O)N[C@@H](CCC(N)=O)C(=O)N[C@H](C(=O)N[C@@H](CC(C)C)C(=O)O)C(C)C [Peptide 3] | 0.4 µM |
| PMADIAAAL-OH [Peptide 23, PMADIAAAL] | > 50 µM |
| GMNVTAPAL [Peptide 7, GMNVTAPAL] | 8 µM |
| RLRPELAGL [Peptide 52] | 46 µM |
| VMMSEIAGL [Peptide 32] | 13 µM |
| FLAADALVL-OH [Peptide 15] | > 50 µM |
| TMITFRLRL [Peptide 33] | 2.4 µM |
| AMAGSIDLL [Peptide 36] | 34 µM |
| FLLPRGLAI-OH [Peptide 54] | > 50 µM |
| GLDARAYRL-OH [Peptide 19] | > 50 µM |
| SMAGRAGQL-OH [Peptide 2] | > 50 µM |
| LMGALAVVL [Peptide 26] | 21 µM |

system: CD3+CD8+CD56- T-cells; assay: not given; type: cell-based, human; details: 10 PPD responders; recognition = >10% proliferating CD3+CD8+CD56- T-cells

| Compound | number of PPD responding adult donors recognizing the peptide |
| --- | --- |
| RLASCRDAL-OH [Peptide 61, RLASCRDAL] | not by any |

same assay, conditions: donor 2; PBMCs, peptide 10 µg/ml (PHA 2 µg/ml, PPD 5 µg/ml), IL-7, IL-2 day 7, CFSE read day 10

| Compound | percentage of proliferation within CD3+CD8+CD56- cells |
| --- | --- |
| FLLPRGLAI-OH [Peptide 54] | 15.8% |

same assay, conditions: donor 4; PBMCs, peptide 10 µg/ml (PHA 2 µg/ml, PPD 5 µg/ml), IL-7, IL-2 day 7, CFSE read day 10

| Compound | percentage of proliferation within CD3+CD8+CD56- cells |
| --- | --- |
| FLLPRGLAI-OH [Peptide 54] | 0.2% |

same assay, conditions: donor 6; PBMCs, peptide 10 µg/ml (PHA 2 µg/ml, PPD 5 µg/ml), IL-7, IL-2 day 7, CFSE read day 10

| Compound | percentage of proliferation within CD3+CD8+CD56- cells |
| --- | --- |
| FLLPRGLAI-OH [Peptide 54] | 1.6% |

system: CD8+ T-cells; assay: not given; type: cell-based, human; details: not given

| Compound | number of BCG vaccinees recognizing the peptide |
| --- | --- |
| RLASCRDAL-OH [Peptide 61, RLASCRDAL] | 2 |

system: TGFβ1; assay: not given; type: cell-based, human; details: Rp15 1-1 clone without Tregs; data not shown

| Compound | increased proliferation on addition of LAP to the indicator clone only |
| --- | --- |
| LAP: recombinant latency associated peptide, reverts active TGFβ to a latent, inactive form (R&D systems) | ≤ 20% |

same assay, conditions: Tregs + Rp15 1-1, 0.5 µg/ml cognate peptide, HLA-DR3+ APCs, 3 days

| Compound | increase of proliferation on addition of LAP to co-cultures of Tregs and indicator clones |
| --- | --- |
| LAP: recombinant latency associated peptide, reverts active TGFβ to a latent, inactive form (R&D systems) | over 40% |
